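Tested at 5 concentrations; 48 h exposure; 96-well plates; endpoints linearly interpolated, else capped at highest concentration. TGI: concentration producing complete growth inhibition.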
What was measured:
Experiment in all cases: NCI-60 cell line screen, 48 h
DMS 114 small cell lung = test system: DMS 114 small cell lung
MOLT-4 leukemia = test system: MOLT-4 leukemia
EKVX NSCLC = test system: EKVX NSCLC
RPMI-8226 leukemia = test system: RPMI-8226 leukemia
SW-620 colon = test system: SW-620 colon
SR leukemia = test system: SR leukemia
HOP-62 NSCLC = test system: HOP-62 NSCLC
M14 melanoma = test system: M14 melanoma
RXF 393 renal = test system: RXF 393 renal
MDA-MB-435 = test system: MDA-MB-435
SNB-75 CNS = test system: SNB-75 CNS
CAKI-1 renal = test system: CAKI-1 renal
M19-MEL melanoma = test system: M19-MEL melanoma
KM12 colon = test system: KM12 colon
IGROV1 ovarian = test system: IGROV1 ovarian
OVCAR-3 ovarian = test system: OVCAR-3 ovarian
OVCAR-5 ovarian = test system: OVCAR-5 ovarian
SF-268 CNS = test system: SF-268 CNS
UACC-257 melanoma = test system: UACC-257 melanoma
SNB-78 CNS = test system: SNB-78 CNS
OVCAR-4 ovarian = test system: OVCAR-4 ovarian
COLO 205 colon = test system: COLO 205 colon
UO-31 renal = test system: UO-31 renal
SNB-19 CNS = test system: SNB-19 CNS
SF-295 CNS = test system: SF-295 CNS
TK-10 renal = test system: TK-10 renal
HS 578T breast = test system: HS 578T breast
LOX IMVI melanoma = test system: LOX IMVI melanoma
786-0 renal = test system: 786-0 renal
UACC-62 melanoma = test system: UACC-62 melanoma
DU-145 prostate = test system: DU-145 prostate
SK-MEL-5 melanoma = test system: SK-MEL-5 melanoma
MDA-N = test system: MDA-N
NCI/ADR-RES ovarian = test system: NCI/ADR-RES ovarian
HCT-15 colon = test system: HCT-15 colon
PC-3 prostate = test system: PC-3 prostate
SK-MEL-2 melanoma = test system: SK-MEL-2 melanoma
HCC-2998 colon = test system: HCC-2998 colon
MALME-3M melanoma = test system: MALME-3M melanoma
KM20L2 colon = test system: KM20L2 colon
XF 498 CNS = test system: XF 498 CNS
K-562 leukemia = test system: K-562 leukemia
DLD-1 colon = test system: DLD-1 colon
HCT-116 colon = test system: HCT-116 colon
SK-OV-3 ovarian = test system: SK-OV-3 ovarian
SK-MEL-28 melanoma = test system: SK-MEL-28 melanoma
T-47D breast = test system: T-47D breast
MCF7 breast = test system: MCF7 breast
A549 NSCLC = test system: A549 NSCLC
SF-539 CNS = test system: SF-539 CNS
ACHN renal = test system: ACHN renal
OVCAR-8 ovarian = test system: OVCAR-8 ovarian
U251 CNS = test system: U251 CNS
SN12C renal = test system: SN12C renal
A498 renal = test system: A498 renal
DMS 273 small cell lung = test system: DMS 273 small cell lung
CCRF-CEM leukemia = test system: CCRF-CEM leukemia
BT-549 breast = test system: BT-549 breast
LXFL 529 NSCLC = test system: LXFL 529 NSCLC
HOP-92 NSCLC = test system: HOP-92 NSCLC
NCI-H23 lung = test system: NCI-H23 lung
MDA-MB-231 breast = test system: MDA-MB-231 breast
HT29 colon = test system: HT29 colon
NCI-H460 lung = test system: NCI-H460 lung
NCI-H522 lung = test system: NCI-H522 lung
NCI-H226 lung = test system: NCI-H226 lung
HL-60(TB) leukemia = test system: HL-60(TB) leukemia

COc1ccc2nccc(NCCCN3CCN(CCCNc4ccnc5ccc(OC)cc45)CC3)c2c1
TGI (DMS 114 small cell lung): 1.91 µM
TGI (MOLT-4 leukemia): 1.16 µM
TGI (EKVX NSCLC): 7.93 µM
TGI (RPMI-8226 leukemia): 1.46 µM
TGI (SW-620 colon): 1.04 µM
TGI (SR leukemia): > 26.2 µM
TGI (HOP-62 NSCLC): 4.4 µM
TGI (M14 melanoma): 3.19 µM
TGI (RXF 393 renal): 3.69 µM
TGI (MDA-MB-435): 1.65 µM
TGI (SNB-75 CNS): 1.89 µM
TGI (CAKI-1 renal): 15 µM
TGI (M19-MEL melanoma): 1.97 µM
TGI (KM12 colon): 1.79 µM
TGI (IGROV1 ovarian): 3.69 µM
TGI (OVCAR-3 ovarian): 7.73 µM
TGI (OVCAR-5 ovarian): 4.74 µM
TGI (SF-268 CNS): 1.79 µM
TGI (UACC-257 melanoma): 2.62 µM
TGI (SNB-78 CNS): 3.47 µM
TGI (OVCAR-4 ovarian): 2.55 µM
TGI (COLO 205 colon): 1.24 µM
TGI (UO-31 renal): 25.8 µM
TGI (SNB-19 CNS): 5.98 µM
TGI (SF-295 CNS): 5.16 µM
TGI (TK-10 renal): 22 µM
TGI (HS 578T breast): 3.27 µM
TGI (LOX IMVI melanoma): 1.49 µM
TGI (786-0 renal): 8.99 µM
TGI (UACC-62 melanoma): 2.08 µM
TGI (DU-145 prostate): 4.86 µM
TGI (SK-MEL-5 melanoma): 2.85 µM
TGI (MDA-N): 1.52 µM
TGI (NCI/ADR-RES ovarian): > 100 µM
TGI (HCT-15 colon): 32.4 µM
TGI (PC-3 prostate): 4.15 µM
TGI (SK-MEL-2 melanoma): 7.99 µM
TGI (HCC-2998 colon): 2.13 µM
TGI (MALME-3M melanoma): 1.88 µM
TGI (KM20L2 colon): 3.37 µM
TGI (XF 498 CNS): 1.56 µM
TGI (K-562 leukemia): 0.526 µM
TGI (DLD-1 colon): 5.12 µM
TGI (HCT-116 colon): 2.54 µM
TGI (SK-OV-3 ovarian): 6.82 µM
TGI (SK-MEL-28 melanoma): 2.92 µM
TGI (T-47D breast): 4.65 µM
TGI (MCF7 breast): 1.37 µM
TGI (A549 NSCLC): 6.55 µM
TGI (SF-539 CNS): 0.681 µM
TGI (ACHN renal): 11.4 µM
TGI (OVCAR-8 ovarian): 2.85 µM
TGI (U251 CNS): 1.51 µM
TGI (SN12C renal): 1.45 µM
TGI (A498 renal): 13.5 µM
TGI (DMS 273 small cell lung): 1.67 µM
TGI (CCRF-CEM leukemia): > 100 µM
TGI (BT-549 breast): 11.6 µM
TGI (LXFL 529 NSCLC): 1.82 µM
TGI (HOP-92 NSCLC): 2.35 µM
TGI (NCI-H23 lung): 2.12 µM
TGI (MDA-MB-231 breast): 4 µM
TGI (HT29 colon): 1.67 µM
TGI (NCI-H460 lung): 1.77 µM
TGI (NCI-H522 lung): 0.633 µM
TGI (NCI-H226 lung): 1.37 µM

N#CC(/C(=N/N=C(N)N)C(=O)Nc1ccccc1[N+](=O)[O-])c1nc(-c2ccc([N+](=O)[O-])cc2)cs1 (configuration not stated)
TGI (DMS 114 small cell lung): > 100 µM
TGI (MOLT-4 leukemia): > 100 µM
TGI (EKVX NSCLC): > 100 µM
TGI (RPMI-8226 leukemia): > 100 µM
TGI (SW-620 colon): > 100 µM
TGI (SR leukemia): > 100 µM
TGI (HOP-62 NSCLC): > 100 µM
TGI (M14 melanoma): > 100 µM
TGI (RXF 393 renal): > 100 µM
TGI (SNB-75 CNS): > 100 µM
TGI (CAKI-1 renal): > 100 µM
TGI (M19-MEL melanoma): > 100 µM
TGI (KM12 colon): > 100 µM
TGI (IGROV1 ovarian): > 100 µM
TGI (OVCAR-3 ovarian): > 100 µM
TGI (OVCAR-5 ovarian): > 100 µM
TGI (SF-268 CNS): > 100 µM
TGI (UACC-257 melanoma): > 100 µM
TGI (SNB-78 CNS): > 100 µM
TGI (OVCAR-4 ovarian): > 100 µM
TGI (COLO 205 colon): > 100 µM
TGI (UO-31 renal): > 100 µM
TGI (SNB-19 CNS): > 100 µM
TGI (SF-295 CNS): > 100 µM
TGI (TK-10 renal): > 100 µM
TGI (LOX IMVI melanoma): > 100 µM
TGI (786-0 renal): > 100 µM
TGI (UACC-62 melanoma): > 100 µM
TGI (SK-MEL-5 melanoma): > 100 µM
TGI (HCT-15 colon): > 100 µM
TGI (SK-MEL-2 melanoma): > 100 µM
TGI (HCC-2998 colon): > 100 µM
TGI (MALME-3M melanoma): > 100 µM
TGI (KM20L2 colon): > 100 µM
TGI (XF 498 CNS): > 100 µM
TGI (K-562 leukemia): > 100 µM
TGI (DLD-1 colon): > 100 µM
TGI (HL-60(TB) leukemia): > 100 µM
TGI (HCT-116 colon): > 100 µM
TGI (SK-OV-3 ovarian): > 100 µM
TGI (SK-MEL-28 melanoma): > 100 µM
TGI (A549 NSCLC): > 100 µM
TGI (SF-539 CNS): > 100 µM
TGI (ACHN renal): > 100 µM
TGI (OVCAR-8 ovarian): > 100 µM
TGI (U251 CNS): > 100 µM
TGI (SN12C renal): > 100 µM
TGI (A498 renal): > 100 µM
TGI (DMS 273 small cell lung): > 100 µM
TGI (CCRF-CEM leukemia): > 100 µM
TGI (LXFL 529 NSCLC): > 100 µM
TGI (NCI-H23 lung): > 100 µM
TGI (HT29 colon): > 100 µM
TGI (NCI-H460 lung): > 100 µM
TGI (NCI-H522 lung): > 100 µM
TGI (NCI-H226 lung): > 100 µM
